The values below come from patent publication US11247990B1, “Bicyclic fused pyridine compounds as inhibitors of TAM kinases” (ARRAY BIOPHARMA INC., priority 2017, dated 2022).

Broadly, the pIC50 is the negative decadic logarithm of the IC50, by convention in mol/L.

pIC50: −log10 of the molar value. Counter-ions that a name gives are not always drawn.

Conditions in all cases: averaged IC50
For test [1], the target named is His-tagged recombinant human AXL cytoplasmic domain (Homo sapiens (Human), UniProt P30530). Briefly: AXL Enzyme Assay (LanthaScreen Eu Kinase Binding, TR-FRET). Summed up: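 Compound displacement measured by TR-FRET after 60 min at 22 °C, using Eu-based LanthaScreen binding technology. Ratiometric emission converted to percent of control, fitted to a 4-parameter logistic curve, with IC50 at 50 POC.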
Chain of His-tagged recombinant human AXL cytoplasmic domain (P30530 473-894): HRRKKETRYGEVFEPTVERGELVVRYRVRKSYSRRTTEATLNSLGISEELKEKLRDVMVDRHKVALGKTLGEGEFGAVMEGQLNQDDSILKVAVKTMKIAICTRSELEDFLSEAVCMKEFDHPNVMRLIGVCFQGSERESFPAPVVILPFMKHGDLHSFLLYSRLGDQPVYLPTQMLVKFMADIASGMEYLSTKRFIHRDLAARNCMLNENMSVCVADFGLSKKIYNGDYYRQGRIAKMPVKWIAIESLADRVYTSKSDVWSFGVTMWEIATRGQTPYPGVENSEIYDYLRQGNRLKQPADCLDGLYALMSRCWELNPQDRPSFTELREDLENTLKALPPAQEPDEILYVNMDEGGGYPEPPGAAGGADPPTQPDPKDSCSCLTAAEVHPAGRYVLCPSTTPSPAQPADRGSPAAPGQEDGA

Test [2] has as its target His-tagged recombinant human MER cytoplasmic domain (Homo sapiens (Human), UniProt Q12866). The test is described as follows: MER Enzyme Assay (LanthaScreen Eu Kinase Binding, TR-FRET). The method in brief: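 Percent of control, derived from ratiometric TR-FRET emission, was fitted to a 4-parameter logistic curve and IC50 taken at 50 POC. Binding was read after 60 min at 22 °C using Eu-based LanthaScreen technology and recombinant His-tagged MER cytoplasmic domain.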

Test [3] has as its target GST-tagged recombinant human TYRO3 kinase domain (Homo sapiens (Human), UniProt Q06418). Briefly: TYRO3 Enzyme Assay (LanthaScreen Eu Kinase Binding, TR-FRET). Summed up: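 LanthaScreen Eu binding (tracer displacement) format read by TR-FRET after 60 min at 22 °C. Emission ratio converted to percent of control; IC50 taken where a 4-parameter logistic fit crosses 50 POC.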

Chain of GST-tagged recombinant human TYRO3 kinase domain (Q06418 518-790): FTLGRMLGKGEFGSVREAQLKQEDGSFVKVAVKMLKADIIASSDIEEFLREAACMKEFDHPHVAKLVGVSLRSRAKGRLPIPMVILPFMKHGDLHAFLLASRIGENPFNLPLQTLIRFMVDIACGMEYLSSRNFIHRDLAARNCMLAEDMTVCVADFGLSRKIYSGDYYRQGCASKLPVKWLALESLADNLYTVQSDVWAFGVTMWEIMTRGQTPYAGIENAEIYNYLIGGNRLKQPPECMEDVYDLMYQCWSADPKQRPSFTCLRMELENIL
Chain of His-tagged recombinant human MER cytoplasmic domain (Q12866 527-999): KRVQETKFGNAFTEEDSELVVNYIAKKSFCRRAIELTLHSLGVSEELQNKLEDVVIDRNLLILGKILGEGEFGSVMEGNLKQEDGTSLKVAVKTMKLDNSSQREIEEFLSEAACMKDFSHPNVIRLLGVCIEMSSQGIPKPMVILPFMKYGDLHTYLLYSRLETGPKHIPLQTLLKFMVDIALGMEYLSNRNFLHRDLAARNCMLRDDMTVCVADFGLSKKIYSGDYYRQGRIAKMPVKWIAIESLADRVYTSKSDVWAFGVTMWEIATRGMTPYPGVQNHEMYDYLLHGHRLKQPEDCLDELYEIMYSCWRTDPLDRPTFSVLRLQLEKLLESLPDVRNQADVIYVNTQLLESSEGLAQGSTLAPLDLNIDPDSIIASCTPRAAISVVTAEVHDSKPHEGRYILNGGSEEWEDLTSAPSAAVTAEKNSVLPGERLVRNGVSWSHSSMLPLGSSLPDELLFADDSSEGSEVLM

Consider `CNc1cc2c(cn1)c(-c1cnn(C3CCN(C)CC3)c1)nn2[C@H]1CC[C@@H](Oc2nccnc2C)CC1` [Example 214, N-methyl-3-(1-(1-methylpiperidin-4-yl)-1H-pyrazol-4-yl)-1-((1s,4s)-4-((3-methylpyrazin-2-yl)oxy)cyclohexyl)-1H-pyrazolo[4,3-c]pyridin-6-amine], for which the figures for the negative-log IC50 (pIC50) in test [1], in test [2] and in test [3] were > 8.00, > 8.00 and 7.00 to 8.00, respectively.

Consider `CNc1cc2c(cn1)c(-c1cnn(CC3CCOCC3)c1)nn2[C@H]1CC[C@@H](Oc2nccnc2C)CC1` [Example 215, N-methyl-1-((1s,4s)-4-((3-methylpyrazin-2-yl)oxy)cyclohexyl)-3-(1-((tetrahydro-2H-pyran-4-yl)methyl)-1H-pyrazol-4-yl)-1H-pyrazolo[4,3-c]pyridin-6-amine], for which the pIC50 in test [1] was > 8.00; in test [2] it was > 8.00; in test [3], 7.00 to 8.00.

Consider `CNc1cc2c(cn1)c(-c1ccn(C)c(=O)c1)nn2[C@H]1CC[C@@H](Oc2cccnc2C(F)(F)F)CC1` [Example 216, 1-methyl-4-(6-(methylamino)-1-((1s,4s)-4-((2-(trifluoromethyl)pyridin-3-yl)oxy)cyclohexyl)-1H-pyrazolo[4,3-c]pyridin-3-yl)pyridin-2(1H)-one], for which the pIC50 in test [1], in test [2] and in test [3] was > 8.00 in each case.

Consider `CNc1cc2c(cn1)c(-c1ccc(=O)n(C)c1)nn2[C@H]1CC[C@@H](Oc2cccnc2C(F)(F)F)CC1` [Example 217, 1-methyl-5-(6-(methylamino)-1-((1s,4s)-4-((2-(trifluoromethyl)pyridin-3-yl)oxy)cyclohexyl)-1H-pyrazolo[4,3-c]pyridin-3-yl)pyridin-2(1H)-one], for which the negative-log IC50 (pIC50) in test [1], in test [2] and in test [3] was > 8.00 each time.

On to `CNc1cc2c(cn1)c(-c1ccc3c(c1)CNC3=O)nn2[C@H]1CC[C@@H](Oc2cccnc2C(F)(F)F)CC1` [Example 218, 5-(6-(methylamino)-1-((1s,4s)-4-((2-(trifluoromethyl)pyridin-3-yl)oxy)cyclohexyl)-1H-pyrazolo[4,3-c]pyridin-3-yl)isoindolin-1-one], for which the pIC50 in test [1], in test [2] and in test [3] was > 8.00 each time.

Regarding `CCNc1cc2c(cn1)c(-c1ccn(C)c(=O)c1)nn2[C@H]1CC[C@@H](Oc2cccnc2C(F)(F)F)CC1` [Example 219, 4-(6-(ethylamino)-1-((1s,4s)-4-((2-(trifluoromethyl)pyridin-3-yl)oxy)cyclohexyl)-1H-pyrazolo[4,3-c]pyridin-3-yl)-1-methylpyridin-2(1H)-one hydrochloride], the negative-log IC50 (pIC50) in test [1], in test [2] and in test [3] was > 8.00 throughout.

For `CCNc1cc2c(cn1)c(-c1ccc3c(c1)CNS3(=O)=O)nn2[C@H]1CC[C@@H](Oc2cn(C)nc2C(F)(F)F)CC1` [Example 221, 5-(6-(ethylamino)-1-((1s,4s)-4-((1-methyl-3-(trifluoromethyl)-1H-pyrazol-4-yl)oxy)cyclohexyl)-1H-pyrazolo[4,3-c]pyridin-3-yl)-2,3-dihydrobenzo[d]isothiazole 1,1-dioxide], the pIC50 in test [1], in test [2] and in test [3] was > 8.00 each time.

Turning to `CCNc1cc2c(cn1)c(-c1ccc3c(c1)CN(C)S3(=O)=O)nn2[C@H]1CC[C@@H](Oc2cn(C)nc2C(F)(F)F)CC1` [Example 222, 5-(6-(ethylamino)-1-((1s,4s)-4-((1-methyl-3-(trifluoromethyl)-1H-pyrazol-4-yl)oxy)cyclohexyl)-1H-pyrazolo[4,3-c]pyridin-3-yl)-2-methyl-2,3-dihydrobenzo[d]isothiazole 1,1-dioxide], the pIC50 in test [1], in test [2] and in test [3] was > 8.00 in each case.

Take `CCNc1cc2c(cn1)c(-c1cnn(C[C@H](O)C(C)(C)O)c1)nn2[C@H]1CC[C@@H](Oc2nccc(C(F)(F)F)c2F)CC1` [Example 236, (S)-1-(4-(6-(ethylamino)-1-((1s,4R)-4-((3-fluoro-4-(trifluoromethyl)pyridin-2-yl)oxy)cyclohexyl)-1H-pyrazolo[4,3-c]pyridin-3-yl)-1H-pyrazol-1-yl)-3-methylbutane-2,3-diol]: the negative-log IC50 (pIC50) in test [1] was > 8.00; in test [2], > 8.00; in test [3] it was 7.00 to 8.00.

`CCNc1cc2c(cn1)c(-c1cnn(C[C@@H](O)C(C)(C)O)c1)nn2[C@H]1CC[C@@H](Oc2nccc(C(F)(F)F)c2F)CC1` [Example 237, (R)-1-(4-(6-(ethylamino)-1-((1s,4R)-4-((3-fluoro-4-(trifluoromethyl)pyridin-2-yl)oxy)cyclohexyl)-1H-pyrazolo[4,3-c]pyridin-3-yl)-1H-pyrazol-1-yl)-3-methylbutane-2,3-diol]: the pIC50 in test [1] was > 8.00; in test [2], > 8.00; in test [3], 7.00 to 8.00.

`CCNc1cc2c(cn1)c(-c1cnn(CC(C)(O)CO)c1)nn2[C@H]1CC[C@@H](Oc2nccc(C(F)(F)F)c2F)CC1` (stereo partly drawn) [Example 238, 3-(4-(6-(ethylamino)-1-((1s,4s)-4-((3-fluoro-4-(trifluoromethyl)pyridin-2-yl)oxy)cyclohexyl)-1H-pyrazolo[4,3-c]pyridin-3-yl)-1H-pyrazol-1-yl)-2-methylpropane-1,2-diol]: the pIC50 in test [1] was > 8.00; in test [2], > 8.00; in test [3], 7.00 to 8.00.

Take `CCNc1cc2c(cn1)c(-c1cnn(C[C@H](O)[C@H](C)O)c1)nn2[C@H]1CC[C@@H](Oc2nccc(C(F)(F)F)c2F)CC1` [Example 239, (2S,3S)-1-(4-(6-(ethylamino)-1-((1s,4R)-4-((3-fluoro-4-(trifluoromethyl)pyridin-2-yl)oxy)cyclohexyl)-1H-pyrazolo[4,3-c]pyridin-3-yl)-1H-pyrazol-1-yl)butane-2,3-diol]: the pIC50 in test [1], in test [2] and in test [3] was > 8.00 in each case.

Turning to `CCNc1cc2c(cn1)c(-c1cnn(C[C@@H](O)CO)c1)nn2[C@H]1CC[C@@H](Oc2cc(Cl)ccn2)CC1` [Example 246, (R)-3-(4-(1-((1s,4S)-4-((4-chloropyridin-2-yl)oxy)cyclohexyl)-6-(ethylamino)-1H-pyrazolo[4,3-c]pyridin-3-yl)-1H-pyrazol-1-yl)propane-1,2-diol], the negative logarithm of the IC50 (pIC50) in test [1] was > 8.00; in test [2], > 8.00; in test [3], 7.00 to 8.00.

Take `CCNc1cc2c(cn1)c(-c1cnn(C[C@@H](O)C(C)(C)O)c1)nn2[C@H]1CC[C@@H](Oc2cn(C)nc2C(F)(F)F)CC1` [Example 247, (R)-1-(4-(6-(ethylamino)-1-((1s,4S)-4-((1-methyl-3-(trifluoromethyl)-1H-pyrazol-4-yl)oxy)cyclohexyl)-1H-pyrazolo[4,3-c]pyridin-3-yl)-1H-pyrazol-1-yl)-3-methylbutane-2,3-diol]: the pIC50 in test [1], in test [2] and in test [3] was > 8.00 in each case.

As to `CCNc1cc2c(cn1)c(-c1cnn(CC(N)=O)c1)nn2[C@H]1CC[C@@H](Oc2nccc(C(F)(F)F)c2F)CC1` [Example 248, 2-(4-(6-(ethylamino)-1-((1s,4s)-4-((3-fluoro-4-(trifluoromethyl)pyridin-2-yl)oxy)cyclohexyl)-1H-pyrazolo[4,3-c]pyridin-3-yl)-1H-pyrazol-1-yl)acetamide], the pIC50 in test [1], in test [2] and in test [3] was > 8.00 in each case.
